Test system: sweet taste
Experiment: Sensory testing by a group of about 5 panelists (sweetness, licorice taste, lingering aftertaste)
Assay type: in vivo
Details: for Lingering: panelists' rating of lingering aftertaste on a scale from 1 to 10; for Licorice / Sweet: panelists' rating on a scale from 1 to 10
Protocol: Sensory testing was conducted by a group of about 5 panelists. […] The panelists rated the sweetness, licorice taste, and lingering aftertaste of Isomogroside IVE in comparison to Mogroside V on a scale from 1 to 10.

SMILES: C[C@H](CC[C@@H](O[C@@H]1O[C@H](CO[C@@H]2O[C@H](CO)[C@@H](O)[C@H](O)[C@H]2O)[C@@H](O)[C@H](O)[C@H]1O[C@@H]1O[C@H](CO)[C@@H](O)[C@H](O)[C@H]1O)C(C)(C)O)[C@H]1CC[C@@]2(C)[C@@H]3CC=C4[C@@H](CC[C@H](O[C@@H]5O[C@H](CO[C@@H]6O[C@H](CO)[C@@H](O)[C@H](O)[C@H]6O)[C@@H](O)[C@H](O)[C@H]5O)C4(C)C)[C@]3(C)[C@H](O)C[C@]12C [Mogroside V, reference compound]
- Lingering (250 ppm): 4.6
- Licorice (250 ppm): 3.7
- Sweet (250 ppm): 5.1

SMILES: C[C@H](CC[C@@H](O[C@@H]1O[C@H](CO)[C@@H](O)[C@H](O)[C@H]1O[C@@H]1O[C@H](CO)[C@@H](O)[C@H](O)[C@H]1O)C(C)(C)O)[C@H]1CC[C@@]2(C)[C@@H]3CC=C4[C@@H](CC[C@H](O[C@@H]5O[C@H](CO)[C@@H](O[C@@H]6O[C@H](CO)[C@@H](O)[C@H](O)[C@H]6O)[C@H](O)[C@H]5O)C4(C)C)[C@]3(C)[C@H](O)C[C@]12C [Isomogroside IVE, (1S,4R,9beta,11alpha,24R)-1-{[4-O-(beta-D-glucopyranosyl)-beta-D-glucopyranosyl]oxy}-11,25-dihydroxy-9,10,14-trimethyl-4,9-cyclo-9,10-secocholest-5-en-24-yl 2-O-beta-D-glucopyranosyl-beta-D-glucopyranoside]
- licorice taste and lingering aftertaste in comparison to Mogroside V (250 ppm, panelists' perception): no statistically significant difference
- sweetness in comparison to Mogroside V (250 ppm, panelists' perception): somewhat sweeter than Mogroside V
- Lingering (250 ppm): 5.4
- Licorice (250 ppm): 4.5
- Sweet (250 ppm): 7.0
- times sweeter than sucrose (tasted at 250 ppm in a water base): 200-300 times

From patent US20220017564A1, “MOGROSIDE COMPOUNDS AND USES THEREOF” (Firmenich SA, priority 2019, published 2022)
